From patent publication US7148248B2, “Method of treating or inhibiting the development of brain inflammation and sepsis” (priority 2002, dated 2006)
Read-outs that look alike come from different tables or passages of the source.

Tests used:
[1] = system: sepsis; details: cited from earlier work
[2] = system: dextran-induced paw edema; assay: dextran-induced rat paw edema; format: in vivo
Source text: Therefore, it was expected that such a mechanism might also come into play at the central nervous system level.

[3] = rats, cited from earlier work
[4] = system: arachidonic acid-induced brain inflammation; assay: brain inflammation induced by arachidonic acid in the subarachnoid space (CSF volume and WBC count in CSF); format: in vivo, rat
Procedure: Male rats, approximately 350–400 g, were anesthetized with sodium pentobarbital at a dose of 50 mg/kg intraperitoneally (i.p.). Animals were then placed in a stereotaxic unit. Fur from the top of the head to neck was shaved. The study area was disinfected with 70% ethanol followed by a 10% providone-iodine solution. Skin and muscle over the cervical cord were dissected until cervical vertebrae were exposed. A hole was made using a 23G3/4 needle passing through the dura via the cisterna magna. One end of a 2–3 mm PE10 cannula (0.011 “I.D., 0.007” thick, 0.024” O.D., 6.5 cm long) was inserted into the subarachnoid space at the cervical cord so as to avoid damage to neuronal tissue (FIG. 3). The cannula was fixed with cyanoacrylic glue to the peripheral tissue. […] The cannula filled with CSF immediately after the cannulation. Air was infused to inject AA to the subarachnoid space. The muscles and skin were closed with surgical staples. The rat was then removed from the stereotaxic unit and placed on a heat pad and continuously monitored. […] If the effects of the anesthesia appeared to be wearing off, an additional 0.05–0.1 ml pentobarbital (50 mg/ml, i.p.) dose was administered. If at any time during the experiment, the animal appeared to be in pain or distress, the study was immediately stopped and the animal was euthanized. In the present study, the volume (μl) of cerebrospinal fluid (CSF) and white blood cell (WBC) counts in CSF was measured every thirty minutes for 11 hours from the same rat. One side of the cannula (PE10) was inserted into the subarachnoid space under pentobarbital anesthesia, avoiding neuronal damage (FIG. 3). If the brain tissue is damaged, the volume of CSF and WBC increases immediately without the administration of arachidonic acid. Since there are no WBC in the CSF in the normal rat, only rats that had no WBC in the CSF immediately after the cannulation were used. Another side of the cannula remained open and was used for the administration of nociceptive stimuli (arachidonic acid, LPS, dextran, etc.) and subsequently for collecting the CSF every thirty minutes during the experiment. The CSF volume was measured using a micropipette and WBC in the CSF were counted by means of a hemacytometer.

[5] = mice, cited from earlier work
[6] = system: interleukin-6 induced leukocyte in CSF; assay: interleukin-6 induced white blood cell infiltration into CSF (sepsis model); format: in vivo, dog; details: 300, 500, 1000 mg/kg p.o. 30 minutes before interleukin-6; for three days
Source text: TNF-α, interleukin-1 and interleukin-6 produced by activated macrophages at the site of the nociceptive stimuli play a particularly important role in mediating acute-phase inflammation as well as sepsis. In fact, proinflammatory cytokines administered to the outside of the blood brain barrier through the chronically in-dwelling intracerebroventricular catheter attached to an Ommaya reservoir increase white blood cell count (characterized by neutrophilic response and lymphocyte respectively) in the cerebrospinal fluid in dogs. The inflammation induced by interleukin-6, was longer lasting (starting from 2 hours, peak time are 10–24 hours lasting 24–72 hours) than that induced by interleukin-1β and TNF-α. In the present studies presented in the Examples hereinbelow, the inflammation caused by interleukin-6 was used as a sepsis model, measuring the amount of infiltrating white blood cells in the cerebrospinal fluid.

[7] = system: ischemia (occlusion of both carotid arteries); assay: rat ischemia model, reversible 30 minute occlusion of both carotid arteries followed by reperfusion; format: in vivo; details: 450 mg/kg i.p. 30 minutes before the occlusion
[8] = cited from earlier work
[9] = system: focal cerebral ischemia; details: cited from earlier work
[10] = cited from earlier work; remark: listed apart in the source

C[C@]12CCC(=O)C=C1CC[C@@H]1[C@@H]2[C@@H](O)C[C@@]2(C)[C@H]1CC[C@]2(O)C(=O)CO [Hydrocortisone]
Effect ([1]; large dose (100 mg i.v. then 0.18/kg/hr)): none or worse | Effect ([1]; small dose (100 mg i.v./every 8 hours)): effective

O=C(Nc1cccc2c(=O)cc(-c3nnn[nH]3)oc12)c1ccc(OCCCCc2ccccc2)cc1 [pranlukast]
inhibition of dextran-induced paw edema ([2]; 450 mg/kg, administered intraperitoneally): completely inhibited | inhibition of dextran-caused paw edema ([2]; 450 mg/kg, administered orally (FIG. 2)): completely inhibited | dose dependence of inhibition of dextran-induced paw edema ([2]; rat, in vivo): dose-dependent fashion | LD50 ([3]; p.o.): > 2000 mg/kg | LD50 ([3]; s.c.): > 2000 mg/kg | effect on brain inflammation caused by a large dose of arachidonic acid ([4]; arachidonic acid 6.25 μg/2.0 μl, pranlukast 450 mg/kg p.o.): not inhibited by pranlukast (450 mg/kg; p.o.) but was attenuated | time until white blood cell count returned to normal (=zero) after arachidonic acid ([4]; arachidonic acid 6.25 μg/2.0 μl, pranlukast 450 mg/kg p.o., 5 days without pranlukast): 36 h | inhibition of the increase of CSF volume ([4]; pranlukast 450 mg/kg i.p. thirty minutes before arachidonic acid 3.25 μg/2 μl, n=4): completely inhibited | inhibition of inflammation caused by arachidonic acid ([4]; pranlukast 450 mg/kg i.p., arachidonic acid 3.25 μg/2 μl): completely inhibits | LD50 ([5]; p.o.): > 2000 mg/kg | LD50 ([5]; s.c.): > 2000 mg/kg | inhibition of interleukin-6 induced leukocyte in CSF [6]: completely inhibited | survival [7]: One of 4–5 rats survived for one week | behavior, changes in body weight and food intake compared with control group ([8]; single 30-1000 mg/kg p.o. and repeated 30-1000 mg/kg/day p.o. for three and six months): normal | urine examination and histopathological examinations ([8]; single and repeated administration): normal | effect on death of brain cells ([9]; 0.003-1.0 mg/kg i.p. 30 minutes before MCA occlusion and 2 hours after reperfusion, evaluated 24 hours after reperfusion): inhibited the death of brain cells | most effective dose ([9]; Zhang et al (2002)): 0.1 mg/kg | time the maximum blood concentration was maintained ([10]; 20 mg/kg p.o.): at least 5 hours | time to maximum blood concentration ([10]; 20 mg/kg p.o.): within one hour | pranlukast in blood 24 hours after administration ([10]; low doses (20 mg/kg p.o.)): no pranlukast was observed
